Data taken from US10806729B2, “Quinoline derivatives for use in the treatment or prevention of viral infection” (ABIVAX, priority 2015, dated 2020).

Assays:
HIV-1 = conditions: human PBMCs, increasing drug pressure
Experimental: Resistance to Compound 22 was tested on human PBMCs and compared to current therapies. […] Various classes of antiviral agents can affect the life cycle of HIV-1 in different manners. […] The selection of drug resistant mutants in vitro can be readily accomplished by maintaining the virus in a state of sub-optimal growth, regulated by slowly increasing the amount of drug pressure applied. This technique mimics the consequences of drug therapy in patients. Therefore, in this way, novel compounds can be assessed for their selection profile in order to evaluate the likelihood of emergence of HIV-1 drug resistance in future clinical trials. In addition, combinations of drugs can be investigated in the same manner.

HIV-1 strain YU2 = assay: HIV-1 p24 production in infected monocyte derived macrophages (ELISA); assay type: cell-based; conditions: Human immunodeficiency virus 1, Primary macrophage; primary macrophages infected with Yu-2, at 0.1 μM; read-out: inhibition levels of virus replication (p24)
Excerpt: FIG. 1. Potency of quinoline derivatives to inhibit HIV-1 production in PBMC- and macrophages-infected cells. […] Each point represents 6 donors. B) HIV-1 strain YU2 was used to infect triplicate of monocyte derived-macrophages from different donors in the absence or presence of increasing concentrations of Compound 22. […] Each point represents 8 donors. To generate monocyte derived macrophages (MDMs), monocytes were isolated using CD14 microbeads (catalog no. 130-050-201; Miltenyi) and cultured in X-VIVO10 medium (Lonza) supplemented with GM-CSF 1000 U/ml and M-CSF 100 ng/ml for 6 days. Monocytes were seeded at a cell count of 50,000 cells per well in a 96 well plate. After 6 days medium was replaced with X-VIVO10 w/o Cytokines. After 2 days Macrophages were treated with Compound 22 and/or its N-glucuronide metabolite o/n and next day infected with Yu-2 virus for 6 hrs, washed with PBS and cultured in medium containing the compounds for 12 days. Supernatant for p24 Elisa was collected 2 times a week. Cells were treated with 0.01 μM up to 30 μM and p24 antigen levels were monitored in culture supernatant over a 12 day period. Cell culture supernatant HIV p24 titration was performed by ELISA with Ingen Innotest kit (Ingen Ref 80564) according to the manufacturer's instructions.

SMILES: Cc1ccnc2c1NC(=O)c1cccnc1N2C1CC1 [Nevirapine, reference compound]
- Time of Selection (weeks) (HIV-1): 3 weeks

SMILES: O=C(O)[C@H]1O[C@@H](N(c2ccc(OC(F)(F)F)cc2)c2ccc3cccc(Cl)c3n2)[C@H](O)[C@@H](O)[C@@H]1O [N-glucuronide metabolite]
- inhibition at 0.1 µM (HIV-1 strain YU2): ≤ 90%

SMILES: C[C@H](Cn1cnc2c(N)ncnc21)OCP(=O)(O)O [Tenofovir, reference compound]
- Time of Selection (weeks) (HIV-1): 12 weeks
